Reference: patent US4705788A, “Novel antibacterial 7-amino-1(substituted cyclopropyl)-1,4-dihydro-4-oxo-3-quinolinecarboxylic acids” (Bayer Aktiengesellschaft, priority 1985, dated 1987)
≈ marks a conversion by molar mass, not a printed value.

Assays:
Assay in all cases: MIC, agar dilution test (Isosensitest medium), Denley multipoint inoculator
Assay type in all cases: cell-based
[1] = tested on: E. coli T 7; details: Escherichia coli, T7, strain E. coli T 7
Excerpt: (§1) Agar dilution test (Isosensitest medium); Denley multipoint inoculator

[2] = tested on: Klebsiella 8085; details: strain Klebsiella 8085
Excerpt: as §1

[3] = tested on: E. coli A 261; details: Escherichia coli, A261, strain E. coli A 261
Excerpt: as §1

[4] = tested on: E. coli Neumann; details: Escherichia coli, strain E. coli Neumann
Excerpt: as §1

Row | SMILES | MIC [1] | MIC [2] | MIC [3] | MIC [4]
1 | CCn1cc(C(=O)O)c(=O)c2cc(F)c(N3CCNCC3)cc21 [Norfloxacin, reference compound] | 0.06 mg/L (≈ 0.188 µM) | 0.125 mg/L (≈ 0.391 µM) | 0.03 mg/L (≈ 0.0939 µM) | 0.06 mg/L (≈ 0.188 µM)
2 | CC1(n2cc(C(=O)O)c(=O)c3cc(F)c(N4CCNCC4)cc32)CC1 [Example 1, 6-fluoro-1,4-dihydro-1-(1-methylcyclopropyl)-4-oxo-7-(1-piperazinyl)-3-quinolinecarboxylic acid] | ≤ 0.015 mg/L | 0.03 mg/L (≈ 0.0869 µM) | ≤ 0.015 mg/L | 0.06 mg/L (≈ 0.174 µM)
3 | CC1CN(c2cc3c(cc2F)c(=O)c(C(=O)O)cn3C2(C)CC2)CCN1 (stereo not drawn) [Example 3] | 0.03 mg/L (≈ 0.0835 µM) | 0.06 mg/L (≈ 0.167 µM) | 0.03 mg/L (≈ 0.0835 µM) | 0.06 mg/L (≈ 0.167 µM)
